Assay results published in ChEMBL document CHEMBL1132937, “Protease inhibitors: synthesis of potent bacterial collagenase and matrix metalloproteinase inhibitors incorporating N-4-nitrobenzylsulfonylglycine hydroxamate moieties” (J Med Chem, 2000).

Tests used:
[1] = target: Matrix metalloproteinase-9 (Homo sapiens, UniProt P14780)
Description: Inhibitory activity against the Matrix metalloprotease-9

Neutrophil collagenase = Neutrophil collagenase (Homo sapiens, UniProt P22894)
Description: Inhibitory activity against the Matrix Metalloprotease-8

Interstitial collagenase = target: T1, Interstitial collagenase (Homo sapiens, UniProt P03956)
T1 sequence (P03956 whole entry): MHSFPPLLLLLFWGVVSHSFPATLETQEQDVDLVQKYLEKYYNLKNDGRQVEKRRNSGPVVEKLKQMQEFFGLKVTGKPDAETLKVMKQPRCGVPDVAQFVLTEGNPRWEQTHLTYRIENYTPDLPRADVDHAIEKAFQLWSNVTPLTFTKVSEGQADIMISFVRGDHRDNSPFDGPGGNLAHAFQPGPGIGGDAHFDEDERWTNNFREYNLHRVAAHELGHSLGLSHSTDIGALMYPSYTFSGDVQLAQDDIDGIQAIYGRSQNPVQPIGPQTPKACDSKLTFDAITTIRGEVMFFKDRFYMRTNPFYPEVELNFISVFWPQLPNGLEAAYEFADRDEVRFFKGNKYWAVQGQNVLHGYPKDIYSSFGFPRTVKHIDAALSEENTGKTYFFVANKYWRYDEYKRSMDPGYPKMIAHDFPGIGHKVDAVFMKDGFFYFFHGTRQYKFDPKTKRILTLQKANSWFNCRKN
Description: Inhibitory activity against the Matrix Metalloprotease 1 (MMP-1)

[2] = target: 72 kDa type IV collagenase (Homo sapiens, UniProt P08253)
72 kDa type IV collagenase, sequence (P08253 whole entry): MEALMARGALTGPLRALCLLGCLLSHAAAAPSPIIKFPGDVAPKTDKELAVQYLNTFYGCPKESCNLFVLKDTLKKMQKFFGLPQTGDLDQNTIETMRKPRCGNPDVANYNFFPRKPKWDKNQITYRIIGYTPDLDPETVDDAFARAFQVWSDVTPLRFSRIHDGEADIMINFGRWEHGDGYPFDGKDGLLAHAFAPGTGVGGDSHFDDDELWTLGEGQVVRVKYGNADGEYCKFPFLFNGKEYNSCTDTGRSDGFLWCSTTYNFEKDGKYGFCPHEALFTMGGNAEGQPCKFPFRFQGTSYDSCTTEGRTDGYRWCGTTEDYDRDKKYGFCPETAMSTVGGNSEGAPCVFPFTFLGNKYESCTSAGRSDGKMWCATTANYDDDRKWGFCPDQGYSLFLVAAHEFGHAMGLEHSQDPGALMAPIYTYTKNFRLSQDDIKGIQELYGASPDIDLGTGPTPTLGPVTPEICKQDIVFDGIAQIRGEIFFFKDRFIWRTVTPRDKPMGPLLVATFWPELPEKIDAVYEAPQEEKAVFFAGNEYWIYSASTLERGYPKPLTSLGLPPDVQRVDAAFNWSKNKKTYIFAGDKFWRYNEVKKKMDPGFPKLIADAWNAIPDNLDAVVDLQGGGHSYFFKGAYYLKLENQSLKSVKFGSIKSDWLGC
Description: Inhibitory activity against the Matrix Metalloprotease 2 (MMP-2)

Neutrophil collagenase, sequence (P22894 whole entry): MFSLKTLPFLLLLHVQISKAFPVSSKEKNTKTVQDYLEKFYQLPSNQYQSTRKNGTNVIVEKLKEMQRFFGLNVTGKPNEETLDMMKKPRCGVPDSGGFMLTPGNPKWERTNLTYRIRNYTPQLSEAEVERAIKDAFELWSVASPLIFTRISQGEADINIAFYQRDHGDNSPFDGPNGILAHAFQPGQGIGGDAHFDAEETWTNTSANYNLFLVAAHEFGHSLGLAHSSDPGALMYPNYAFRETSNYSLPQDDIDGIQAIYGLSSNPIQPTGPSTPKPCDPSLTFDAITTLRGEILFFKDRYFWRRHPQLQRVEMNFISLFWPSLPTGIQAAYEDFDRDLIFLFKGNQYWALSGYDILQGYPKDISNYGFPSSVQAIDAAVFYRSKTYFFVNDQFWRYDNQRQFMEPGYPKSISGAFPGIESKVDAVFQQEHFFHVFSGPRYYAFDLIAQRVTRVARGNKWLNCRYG
Matrix metalloproteinase-9, sequence (P14780 whole entry): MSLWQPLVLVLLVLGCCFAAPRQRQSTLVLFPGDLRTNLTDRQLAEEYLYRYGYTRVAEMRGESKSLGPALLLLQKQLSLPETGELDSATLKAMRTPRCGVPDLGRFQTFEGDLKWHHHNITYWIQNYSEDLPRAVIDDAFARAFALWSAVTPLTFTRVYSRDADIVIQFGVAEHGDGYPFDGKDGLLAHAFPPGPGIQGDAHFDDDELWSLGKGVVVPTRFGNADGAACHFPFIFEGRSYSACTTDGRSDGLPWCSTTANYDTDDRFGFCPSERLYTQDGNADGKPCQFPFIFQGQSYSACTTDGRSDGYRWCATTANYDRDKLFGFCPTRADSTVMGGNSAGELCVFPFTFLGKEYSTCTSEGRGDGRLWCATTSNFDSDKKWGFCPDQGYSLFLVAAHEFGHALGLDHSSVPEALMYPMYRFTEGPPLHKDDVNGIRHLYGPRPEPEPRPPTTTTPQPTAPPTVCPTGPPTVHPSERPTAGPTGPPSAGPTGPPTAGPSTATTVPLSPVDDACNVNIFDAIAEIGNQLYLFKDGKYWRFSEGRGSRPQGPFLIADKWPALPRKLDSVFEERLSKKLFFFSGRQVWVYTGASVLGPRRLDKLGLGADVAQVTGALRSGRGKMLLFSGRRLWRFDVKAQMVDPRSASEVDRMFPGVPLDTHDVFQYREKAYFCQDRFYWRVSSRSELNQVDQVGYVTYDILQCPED

SMILES | Ki [1] [nM] | Ki (Neutrophil collagenase) [nM] | Ki (Interstitial collagenase) [nM] | Ki [2] [nM]
CC(C)(C)OC(=O)Nc1cccc(S(=O)(=O)N(CC(=O)NO)Cc2ccc([N+](=O)[O-])cc2)c1 | 14 | 15 | 26 | 11
O=C(CN(Cc1ccc([N+](=O)[O-])cc1)Sc1ccc([N+](=O)[O-])cc1)NO | 11 | 8 | 18 | 10
CN(C)c1cccc2c(S(=O)(=O)N(CC(=O)NO)Cc3ccc([N+](=O)[O-])cc3)cccc12 | 53 | 58 | 83 | 41
CC(C)(C)OC(=O)Nc1ccc(S(=O)(=O)N(CC(=O)NO)Cc2ccc([N+](=O)[O-])cc2)cc1 | 10 | 11 | 17 | 10
O=C(CN(Cc1ccc([N+](=O)[O-])cc1)S(=O)(=O)c1ccc(NC(=O)NS(=O)(=O)c2ccc(F)cc2)cc1)NO | 1.2 | 0.5 | 54 | 0.6
CS(=O)(=O)N(CC(=O)NO)Cc1ccc([N+](=O)[O-])cc1 | 30 | 24 | 75 | 19
O=C(CN(Cc1ccc([N+](=O)[O-])cc1)S(=O)(=O)c1ccc([N+](=O)[O-])cc1)NO | 8 | 7 | 15 | 9
O=C(CN(Cc1ccc([N+](=O)[O-])cc1)S(=O)(=O)c1cccs1)NO | 10 | 12 | 14 | 13
Cc1cc(C)c(S(=O)(=O)N(CC(=O)NO)Cc2ccc([N+](=O)[O-])cc2)c(C)c1 | 39 | 29 | 36 | 25
O=C(CN(Cc1ccc([N+](=O)[O-])cc1)S(=O)(=O)c1ccc([N+](=O)[O-])c(Cl)c1)NO | 7 | 6 | 31 | 7
O=C(CN(Cc1ccc([N+](=O)[O-])cc1)C(=O)NS(=O)(=O)c1ccc(Cl)cc1)NO | 5 | 4 | 46 | 3
Cc1ccccc1S(=O)(=O)NC(=O)Nc1cccc(S(=O)(=O)N(CC(=O)NO)Cc2ccc([N+](=O)[O-])cc2)c1 | 3 | 2 | 58 | 2.8
O=C(O)CN(Cc1ccc([N+](=O)[O-])cc1)S(=O)(=O)c1cccc(NC(=O)NS(=O)(=O)c2ccc(F)cc2)c1 | 18 | 34 | > 100 | 15
O=C(CN(Cc1ccc([N+](=O)[O-])cc1)S(=O)(=O)c1cc(Cl)ccc1Cl)NO | 17 | 13 | 9 | 10
COc1ccc(S(=O)(=O)N(CC(=O)NO)Cc2ccc([N+](=O)[O-])cc2)cc1NC(=O)OC(C)(C)C | 7 | 7 | 25 | 5
O=C(O)CN(Cc1ccc([N+](=O)[O-])cc1)S(=O)(=O)c1ccc(NC(=O)NS(=O)(=O)c2ccc(Cl)cc2)cc1 | 36 | 24 | 95 | 21
Cc1ccc(S(=O)(=O)NC(=O)Nc2ccc(S(=O)(=O)N(CC(=O)O)Cc3ccc([N+](=O)[O-])cc3)cc2)cc1 | 25 | 28 | 94 | 24
O=C(CN(Cc1ccc([N+](=O)[O-])cc1)S(=O)(=O)c1ccc(NC(=O)NS(=O)(=O)c2ccccc2)cc1)NO | 0.9 | 0.7 | 61 | 0.6
O=C(CN(Cc1ccc([N+](=O)[O-])cc1)S(=O)(=O)c1ccc(F)cc1)NO | 14 | 15 | 19 | 15
Cc1ccc(S(=O)(=O)NC(=O)N(CC(=O)NO)Cc2ccc([N+](=O)[O-])cc2)cc1 | 8 | 6 | 54 | 6
O=C(O)CN(Cc1ccc([N+](=O)[O-])cc1)S(=O)(=O)c1cccc(NC(=O)NS(=O)(=O)c2ccccc2)c1 | 22 | 27 | > 100 | 19
O=C(O)CN(Cc1ccc([N+](=O)[O-])cc1)S(=O)(=O)c1ccc(NC(=O)NS(=O)(=O)c2ccccc2)cc1 | 21 | 23 | > 100 | 18

SMILES | Ki [1] [nM] | Ki (Neutrophil collagenase) [nM] | Ki (Interstitial collagenase) [nM] | Ki [2] [nM]
Cc1ccc(S(=O)(=O)NC(=O)Nc2cccc(S(=O)(=O)N(CC(=O)NO)Cc3ccc([N+](=O)[O-])cc3)c2)cc1 | 3.1 | 2.1 | 53 | 2.5
Cc1ccc(S(=O)(=O)N(CC(=O)NO)Cc2ccc([N+](=O)[O-])cc2)cc1 | 27 | 24 | 30 | 20
O=C(CN(Cc1ccc([N+](=O)[O-])cc1)S(=O)(=O)c1cccc(C(F)(F)F)c1)NO | 0.8 | 0.7 | 5 | 1.1
Cc1ccc(S(=O)(=O)NC(=O)Nc2cccc(S(=O)(=O)N(CC(=O)O)Cc3ccc([N+](=O)[O-])cc3)c2)cc1 | 21 | 30 | > 100 | 21
O=C(CN(Cc1ccc([N+](=O)[O-])cc1)S(=O)(=O)c1ccc(C(=O)O)cc1)NO | 2.8 | 2.4 | 34 | 2.5
O=C(CN(Cc1ccc([N+](=O)[O-])cc1)S(=O)(=O)c1ccc(NC(=O)NS(=O)(=O)c2ccc(Cl)cc2)cc1)NO | 1 | 1.1 | 50 | 0.8
O=C(CN(Cc1ccc([N+](=O)[O-])cc1)C(=O)Nc1cccc2ccccc12)NO | 33 | 39 | > 100 | 35
O=C(CN(Cc1ccc([N+](=O)[O-])cc1)C(=S)NC(=O)c1ccccc1)NO | 1.4 | 1.5 | 37 | 2
O=C(CN(Cc1ccc([N+](=O)[O-])cc1)C(=O)NS(=O)(=O)c1ccccc1)NO | 3 | 4 | 39 | 5
CC(=O)Nc1ccc(S(=O)(=O)N(CC(=O)NO)Cc2ccc([N+](=O)[O-])cc2)cc1 | 12 | 9 | 14 | 8
O=C(CN(Cc1ccc([N+](=O)[O-])cc1)S(=O)(=O)C(F)(F)C(F)(F)C(F)(F)C(F)(F)C(F)(F)C(F)(F)C(F)(F)C(F)(F)F)NO | 1.3 | 1.3 | 79 | 0.9
O=C(CN(Cc1ccc([N+](=O)[O-])cc1)C(=O)Nc1ccc(Cl)c(Cl)c1)NO | 7 | 5 | 31 | 6
O=C(CN(Cc1ccc([N+](=O)[O-])cc1)S(=O)(=O)c1ccc(I)cc1)NO | 16 | 17 | 29 | 19
CN(C)S(=O)(=O)N(CC(=O)NO)Cc1ccc([N+](=O)[O-])cc1 | 43 | 35 | 26 | 36
Cc1ccccc1S(=O)(=O)NC(=O)Nc1ccc(S(=O)(=O)N(CC(=O)NO)Cc2ccc([N+](=O)[O-])cc2)cc1 | 0.7 | 1.5 | 72 | 1.6
O=C(CN(Cc1ccc([N+](=O)[O-])cc1)S(=O)(=O)c1cccc(NC(=O)NS(=O)(=O)c2ccc(Cl)cc2)c1)NO | 1.6 | 1.3 | 50 | 1.5
O=C(CN(Cc1ccc([N+](=O)[O-])cc1)S(=O)(=O)c1ccccc1[N+](=O)[O-])NO | 14 | 13 | 59 | 15
O=C(CN(Cc1ccc([N+](=O)[O-])cc1)S(=O)(=O)C(Cl)(Cl)Cl)NO | 25 | 19 | 24 | 17
O=C(CN(Cc1ccc([N+](=O)[O-])cc1)S(=O)(=O)c1cccc(NC(=O)NS(=O)(=O)c2ccc(F)cc2)c1)NO | 2.5 | 1.4 | 49 | 1.8
O=C(CN(Cc1ccc([N+](=O)[O-])cc1)S(=O)(=O)c1cccc(C(=O)O)c1)NO | 2.5 | 3.3 | 41 | 3
O=C(CN(Cc1ccc([N+](=O)[O-])cc1)S(=O)(=O)c1cccc(NC(=O)NS(=O)(=O)c2ccccc2)c1)NO | 1.3 | 1 | 60 | 1.2
O=C(CN(Cc1ccc([N+](=O)[O-])cc1)S(=O)(=O)c1ccc(Br)cc1)NO | 21 | 21 | 25 | 13
